Peptide text beside a SMILES is read from it. * marks the point of attachment. X1 = C[N+](C)(CCCC(=O)*)CCCS(=O)(=O)[O-]
Test: Aqueous solubility of zwitterion-modified hydrophobic peptides in de-ionized water
Format: physicochemical
Conditions: concentration giving a clear solution, peptide labeled at the α-amino group with Z3-PFP
Protocol: Specifically, four representative hydrophobic peptides, penta(phenylalanine), a tetrapeptide with the sequence Phe-Gly-Gly-Phe, penta(leucine) and penta(isoleucine) were all labeled at the α-amino group with the amine-reactive, zwitterionic reagent Z3-PFP (compound 2c in Figure 1). One such labeling experiment is illustrated in Example 12. The zwitterion-modified peptides were purified by chromatography and their aqueous solubility was assessed by dissolving them in de-ionized water at concentrations that gave clear homogenous solutions. […] Penta(phenylalanine) modified by the zwitterion-containing compound Z3-PFP, compound 2c, dissolved in water and provided a clear solution at a concentration of ~0.5 mM.

Row | solubility | SMILES
1 | ≥ 3000 µM | C[N+](C)(CCCC(=O)N[C@@H](Cc1ccccc1)C(=O)NCC(=O)NCC(=O)N[C@@H](Cc1ccccc1)C(=O)O)CCCS(=O)(=O)[O-] (X1-FGGF-OH)
2 | ≥ 500 µM | C[N+](C)(CCCC(=O)N[C@@H](Cc1ccccc1)C(=O)N[C@@H](Cc1ccccc1)C(=O)N[C@@H](Cc1ccccc1)C(=O)N[C@@H](Cc1ccccc1)C(=O)N[C@@H](Cc1ccccc1)C(=O)O)CCCS(=O)(=O)[O-] (X1-FFFFF-OH)
3 | ≥ 100 µM | CC[C@H](C)[C@H](NC(=O)[C@@H](NC(=O)[C@@H](NC(=O)[C@@H](NC(=O)[C@@H](NC(=O)CCC[N+](C)(C)CCCS(=O)(=O)[O-])[C@@H](C)CC)[C@@H](C)CC)[C@@H](C)CC)[C@@H](C)CC)C(=O)O (X1-IIIII-OH)
4 | ≥ 100 µM | CC(C)C[C@H](NC(=O)[C@H](CC(C)C)NC(=O)[C@H](CC(C)C)NC(=O)[C@H](CC(C)C)NC(=O)[C@H](CC(C)C)NC(=O)CCC[N+](C)(C)CCCS(=O)(=O)[O-])C(=O)O (X1-LLLLL-OH)

From EP4800020A2, “ZWITTERIONIC REAGENTS” (Siemens Healthcare Diagnostics, Inc., priority 2010, dated 2011)
